Data taken from PubChem BioAssay (NCI).
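Test compounds were applied to cells in 96-well plates for 48 hours at 5 doses. GI50 is the concentration that inhibits growth by half. The concentration for full growth arrest is given as TGI.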

What was measured:
Assay in all cases: growth of human tumour cells (NCI), 48 h
HOP-92 NSCLC = test system: HOP-92 NSCLC
SK-MEL-2 melanoma = test system: SK-MEL-2 melanoma
CAKI-1 renal = test system: CAKI-1 renal
OVCAR-3 ovarian = test system: OVCAR-3 ovarian
UO-31 renal = test system: UO-31 renal
U251 CNS = test system: U251 CNS
NCI-H23 lung = test system: NCI-H23 lung
PC-3 prostate = test system: PC-3 prostate
HCT-116 colon = test system: HCT-116 colon
DU-145 prostate = test system: DU-145 prostate
M14 melanoma = test system: M14 melanoma
UACC-62 melanoma = test system: UACC-62 melanoma
SK-MEL-5 melanoma = test system: SK-MEL-5 melanoma
RXF 393 renal = test system: RXF 393 renal
HCC-2998 colon = test system: HCC-2998 colon
OVCAR-8 ovarian = test system: OVCAR-8 ovarian
MDA-MB-231 breast = test system: MDA-MB-231 breast
NCI-H460 lung = test system: NCI-H460 lung
T-47D breast = test system: T-47D breast
HCT-15 colon = test system: HCT-15 colon
MOLT-4 leukemia = test system: MOLT-4 leukemia
SK-MEL-28 melanoma = test system: SK-MEL-28 melanoma
OVCAR-4 ovarian = test system: OVCAR-4 ovarian
SN12C renal = test system: SN12C renal
IGROV1 ovarian = test system: IGROV1 ovarian
SR leukemia = test system: SR leukemia
786-0 renal = test system: 786-0 renal
MALME-3M melanoma = test system: MALME-3M melanoma
LOX IMVI melanoma = test system: LOX IMVI melanoma
MDA-MB-435 = test system: MDA-MB-435
A549 NSCLC = test system: A549 NSCLC
SNB-75 CNS = test system: SNB-75 CNS
SF-539 CNS = test system: SF-539 CNS
SW-620 colon = test system: SW-620 colon
SF-295 CNS = test system: SF-295 CNS
MCF7 breast = test system: MCF7 breast
OVCAR-5 ovarian = test system: OVCAR-5 ovarian
TK-10 renal = test system: TK-10 renal
CCRF-CEM leukemia = test system: CCRF-CEM leukemia
K-562 leukemia = test system: K-562 leukemia
HT29 colon = test system: HT29 colon
A498 renal = test system: A498 renal
ACHN renal = test system: ACHN renal
SNB-19 CNS = test system: SNB-19 CNS
NCI-H522 lung = test system: NCI-H522 lung
UACC-257 melanoma = test system: UACC-257 melanoma
NCI-H226 lung = test system: NCI-H226 lung
HL-60(TB) leukemia = test system: HL-60(TB) leukemia
COLO 205 colon = test system: COLO 205 colon
KM12 colon = test system: KM12 colon
HOP-62 NSCLC = test system: HOP-62 NSCLC
SF-268 CNS = test system: SF-268 CNS
HS 578T breast = test system: HS 578T breast
NCI/ADR-RES ovarian = test system: NCI/ADR-RES ovarian
EKVX NSCLC = test system: EKVX NSCLC
RPMI-8226 leukemia = test system: RPMI-8226 leukemia
SK-OV-3 ovarian = test system: SK-OV-3 ovarian

## CC(CN1CCN(C)CC1)CN1c2ccccc2Sc2ccc(C(F)(F)F)cc21 (centres undefined)
HOP-92 NSCLC
  GI50: 1.25 µM
  TGI: 4.38 µM
SK-MEL-2 melanoma
  GI50: 2.09 µM
  TGI: 3.74 µM
CAKI-1 renal
  GI50: 2.6 µM
  TGI: 11 µM
OVCAR-3 ovarian
  GI50: 2.04 µM
  TGI: 4.16 µM
UO-31 renal
  GI50: 1.8 µM
  TGI: 6.4 µM
U251 CNS
  GI50: 1.68 µM
  TGI: 3.12 µM
NCI-H23 lung
  GI50: 1.83 µM
  TGI: 4.05 µM
PC-3 prostate
  GI50: 2.09 µM
  TGI: 5.21 µM
HCT-116 colon
  GI50: 1.68 µM
  TGI: 3.07 µM
DU-145 prostate
  GI50: 2.8 µM
  TGI: 6.99 µM
M14 melanoma
  GI50: 1.75 µM
  TGI: 3.25 µM
UACC-62 melanoma
  GI50: 2.09 µM
  TGI: 4.18 µM
SK-MEL-5 melanoma
  GI50: 1.61 µM
  TGI: 2.99 µM
RXF 393 renal
  GI50: 1.64 µM
  TGI: 3.03 µM
HCC-2998 colon
  GI50: 1.63 µM
  TGI: 3.07 µM
OVCAR-8 ovarian
  GI50: 1.76 µM
  TGI: 3.34 µM
MDA-MB-231 breast
  GI50: 1.36 µM
  TGI: 2.82 µM
NCI-H460 lung
  GI50: 1.93 µM
  TGI: 3.84 µM
T-47D breast
  GI50: 1.89 µM
  TGI: 4.55 µM
HCT-15 colon
  GI50: 1.81 µM
  TGI: 3.95 µM
MOLT-4 leukemia
  GI50: 2.05 µM
  TGI: 4.77 µM
SK-MEL-28 melanoma
  GI50: 1.91 µM
  TGI: 3.42 µM
OVCAR-4 ovarian
  GI50: 2.16 µM
  TGI: 4.4 µM
SN12C renal
  GI50: 4.07 µM
  TGI: 14.5 µM
IGROV1 ovarian
  GI50: 2.77 µM
  TGI: 10.2 µM
SR leukemia
  GI50: 2.01 µM
  TGI: 5.32 µM
786-0 renal
  GI50: 1.66 µM
  TGI: 3.12 µM
MALME-3M melanoma
  GI50: 1.72 µM
  TGI: 3.72 µM
LOX IMVI melanoma
  GI50: 1.68 µM
  TGI: 3.25 µM
MDA-MB-435
  GI50: 1.8 µM
  TGI: 3.6 µM
A549 NSCLC
  GI50: 1.85 µM
  TGI: 3.49 µM
SNB-75 CNS
  GI50: 2.21 µM
  TGI: 7.85 µM
SF-539 CNS
  GI50: 1.67 µM
  TGI: 3.59 µM
SW-620 colon
  GI50: 1.83 µM
  TGI: 3.67 µM
SF-295 CNS
  GI50: 1.97 µM
  TGI: 4.31 µM
MCF7 breast
  GI50: 1.64 µM
  TGI: 3.16 µM
OVCAR-5 ovarian
  GI50: 1.53 µM
  TGI: 3.13 µM
TK-10 renal
  GI50: 1.85 µM
  TGI: 3.3 µM
CCRF-CEM leukemia
  GI50: 2.6 µM
  TGI: 6.74 µM
K-562 leukemia
  GI50: 1.76 µM
  TGI: 4.21 µM
HT29 colon
  GI50: 1.8 µM
  TGI: 3.27 µM
A498 renal
  GI50: 2.98 µM
  TGI: 15.2 µM
ACHN renal
  GI50: 1.67 µM
  TGI: 3.27 µM
SNB-19 CNS
  GI50: 2.08 µM
  TGI: 4.32 µM
NCI-H522 lung
  GI50: 1.79 µM
  TGI: 3.37 µM
UACC-257 melanoma
  GI50: 1.89 µM
  TGI: 3.81 µM
NCI-H226 lung
  GI50: 2.6 µM
  TGI: 8.51 µM
HL-60(TB) leukemia
  GI50: 1.92 µM
  TGI: 4.1 µM
COLO 205 colon
  GI50: 1.89 µM
  TGI: 3.65 µM
KM12 colon
  GI50: 1.95 µM
  TGI: 3.52 µM
HOP-62 NSCLC
  GI50: 1.71 µM
  TGI: 3.17 µM
SF-268 CNS
  GI50: 3.1 µM
  TGI: 9.29 µM
HS 578T breast
  GI50: 1.88 µM
  TGI: 5.8 µM
NCI/ADR-RES ovarian
  GI50: 1.94 µM
  TGI: 4.94 µM
EKVX NSCLC
  GI50: 2.1 µM
  TGI: 5.38 µM
RPMI-8226 leukemia
  GI50: 2.43 µM
  TGI: 5.49 µM

## N#Cc1c2cccnc2c2nnc3cc(Cl)c(Cl)cc3n12
SK-MEL-2 melanoma
  GI50: 3.33 µM
  TGI: > 100 µM
OVCAR-3 ovarian
  GI50: 1.83 µM
  TGI: 3.27 µM
NCI-H23 lung
  GI50: 2.81 µM
  TGI: > 100 µM
SK-MEL-5 melanoma
  GI50: > 100 µM
  TGI: > 100 µM
T-47D breast
  GI50: 1.6 µM
  TGI: 4 µM
MOLT-4 leukemia
  GI50: 3.59 µM
  TGI: > 100 µM
SR leukemia
  GI50: 0.923 µM
  TGI: 7.51 µM
786-0 renal
  GI50: > 100 µM
  TGI: > 100 µM
A549 NSCLC
  GI50: > 100 µM
  TGI: > 100 µM
SNB-75 CNS
  GI50: 1.54 µM
  TGI: 3.96 µM
OVCAR-5 ovarian
  GI50: > 100 µM
  TGI: > 100 µM
TK-10 renal
  GI50: > 100 µM
  TGI: > 100 µM
CCRF-CEM leukemia
  GI50: 3.06 µM
  TGI: > 100 µM
SK-OV-3 ovarian
  GI50: > 100 µM
  TGI: > 100 µM
K-562 leukemia
  GI50: 3.52 µM
  TGI: > 100 µM
SF-268 CNS
  GI50: 2.26 µM
  TGI: 5.25 µM
